In patent US20160137639A1, “TRIAZOLE-ISOXAZOLE COMPOUND AND MEDICAL USE THEREOF” (JAPAN TOBACCO INC., priority 2012, published 2016):
Like-named read-outs stand apart in the source and are kept apart here.

Tests used:
mouse RORγ = molecular target: T1, mouse RORγ (Mus musculus, UniProt P51450); assay: Luciferase reporter gene assay of inhibitory effect against RORγ transcriptional activity (GAL4-mRORγ plasmid in CHO cells); type: cell-based
T1 construct: mouse, NM_011281.2 and from Ile251 to Lys516; expressed in transfected cells; host or cells: CHO cells (transient co-transfection with pG5-Luc reporter)
T1 sequence (P51450 251-516): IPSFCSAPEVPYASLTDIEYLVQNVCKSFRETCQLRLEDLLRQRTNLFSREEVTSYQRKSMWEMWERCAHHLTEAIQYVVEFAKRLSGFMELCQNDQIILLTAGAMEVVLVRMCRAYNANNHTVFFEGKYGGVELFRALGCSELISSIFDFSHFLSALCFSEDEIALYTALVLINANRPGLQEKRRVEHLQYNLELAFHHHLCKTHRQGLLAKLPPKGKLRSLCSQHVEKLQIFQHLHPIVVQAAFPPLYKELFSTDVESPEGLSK
Method in brief: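 Readout is intracellular luciferase after 2-day compound exposure (8 concentrations, 0.1% DMSO) in CHO cells expressing GAL4 fused to mouse RORγ LBD residues Ile251–Lys516 plus pG5-Luc reporter. EC50 fitted from %-of-control; points showing resazurin-detected cytotoxicity dropped.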

human RORγ = molecular target: T2, human RORγ (Homo sapiens, UniProt P51449); assay: Luciferase reporter gene assay of inhibitory effect against RORγ transcriptional activity (GAL4-hRORγ plasmid in CHO cells); type: cell-based
T2 construct: human, NM_005060.3 and from Ser253 to Lys518; expressed in transfected cells; host or cells: CHO cells (transient co-transfection with pG5-Luc reporter)
T2 sequence (P51449 253-518): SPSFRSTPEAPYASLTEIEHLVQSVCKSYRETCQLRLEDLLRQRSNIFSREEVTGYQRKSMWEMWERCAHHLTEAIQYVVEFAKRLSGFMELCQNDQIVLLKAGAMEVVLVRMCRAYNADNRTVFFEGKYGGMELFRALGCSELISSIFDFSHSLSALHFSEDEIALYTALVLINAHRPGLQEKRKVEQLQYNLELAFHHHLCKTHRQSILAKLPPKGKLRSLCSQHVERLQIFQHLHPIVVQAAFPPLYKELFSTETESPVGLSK

Row | Structure (SMILES) | EC50 (mouse RORγ; read-out: LUC EC50 (μM) mRORg) | EC50 (human RORγ; read-out: LUC EC50 (μM) hRORg) | EC50 (mouse RORγ; read-out: LUC EC50 mRORg) | EC50 (human RORγ; read-out: LUC EC50 hRORg)
1 | Cc1ccc(NC(=O)CC(CCN)c2nnc(CCCC(C)C)n2C2CC2)c(C)c1 (racemic) [Example F-273] | > 3 µM | > 3 µM | – | –
2 | Cc1ccc(NC(=O)[C@H]2CN(C(=O)C(C)C)C[C@@H]2c2nnc([C@H]3C[C@@H](CC(C)(C)C)C3)n2C2CC2)c(C)c1 [Example F-553] | – | – | < 3 µM | < 3 µM
3 | Cc1ccc(NC(=O)[C@H]2CN(C(=O)CN(C)C)C[C@@H]2c2nnc([C@H]3C[C@@H](CC(C)(C)C)C3)n2C2CC2)c(C)c1 [Example F-648] | – | – | < 3 µM | < 3 µM
4 | CC(C)(C)Cc1cc(-c2onc([C@@H](CCC(=O)O)CC(=O)Nc3ccc(Cl)cc3Cl)c2C2CC2)no1 [Example E-58, Sodium (S)-4-[4′-cyclopropyl-5-(2,2-dimethyl-propyl)-[3,5′]biisoxazolyl-3′-yl]-5-(2,4-dichloro-phenylcarbamoyl)-pentanoate] | < 3 µM | < 3 µM | – | –
5 | Cc1ccc(NC(=O)CC(CC(=O)O)c2nnc([C@H]3C[C@@H](CC(C)C)C3)n2C2CC2)c(C)c1 (mixture of isomers) [Example F-499] | – | – | < 3 µM | > 3 µM
6 | Cc1c(Cl)cccc1NC(=O)CCc1nnc(CCN2CCCCC2)n1C1CC1 [Example F-169] | > 3 µM | > 3 µM | – | –
7 | Cc1c(Cl)cccc1NC(=O)CCc1nnc(CCOC(C)(C)C)n1C1CC1 [Example F-163] | < 3 µM | < 3 µM | – | –
8 | CC1(Cc2cc(-c3onc([C@@H](CCC(=O)O)CC(=O)Nc4ccc(F)cc4Cl)c3C3CC3)no2)CC1 [Example E-63] | < 3 µM | < 3 µM | – | –
9 | Cc1c(Cl)cccc1NC(=O)CCc1nnc(CCNC(C)C)n1C1CC1 [Example F-171] | > 3 µM | > 3 µM | – | –
10 | Cc1ccc(NC(=O)CCc2nnc(C3(O)CC(CC(C)C)C3)n2C2CC2)c(C)c1 (single isomer, unassigned) [Example F-430] | < 3 µM | < 3 µM | – | –
11 | CCn1c(CCC(=O)NCc2ccccc2C)nnc1CCC1CCCCC1 [Example F-41] | < 3 µM | < 3 µM | – | –
12 | Cc1cc(F)ccc1NC(=O)C[C@H](CCC(=O)O)c1noc(-c2cc(CCC(C)(C)C)on2)c1C1CC1 [Example E-37] | < 3 µM | < 3 µM | – | –
13 | Cc1ccc(NC(=O)[C@H]2CN(S(=O)(=O)CC(F)(F)F)C[C@@H]2c2nnc([C@H]3C[C@@H](CC(C)(C)C)C3)n2C2CC2)c(C)c1 [Example F-559] | – | – | < 3 µM | < 3 µM
14 | CC(C)CCc1nnc(CCC(=O)NCc2ccc(C(F)(F)F)cc2)n1C1CC1 [Example F-129] | > 3 µM | > 3 µM | – | –
15 | Cc1ccc(NC(=O)C[C@@H](c2nnc(CCCC(C)(C)C)n2C2CC2)N(C)C(=O)OCc2ccccc2)c(C)c1 [Example F-352] | > 3 µM | > 3 µM | – | –
16 | CC(=O)N1C[C@H](C(=O)Nc2ccc(C)cc2C)[C@@H](c2nnc(CCCC(C)(C)C)n2CC(F)(F)F)C1 (racemic) [Example F-356] | < 3 µM | < 3 µM | – | –
17 | Cc1ccc(NC(=O)[C@@H](CC(=O)O)Cc2noc([C@H]3C[C@@H](CC(C)(C)C)C3)c2C2CC2)c(Cl)c1 [Example F-677] | – | – | < 3 µM | < 3 µM
18 | CC(=O)c1ccc(NC(=O)C[C@H](CCC(=O)O)c2noc([C@H]3C[C@@H](CC(C)(C)CO)C3)c2C2CC2)c(Cl)c1 [Example F-731] | – | – | > 3 µM | > 3 µM
19 | CCn1c(CCC(=O)Nc2ccc(C)cc2C)nnc1CCC1CCCCC1 [Example F-40] | < 3 µM | < 3 µM | – | –
20 | Cc1c(Cl)cccc1NC(=O)CCc1nnc(CCC(C)C)n1C1CC1 [Example F-55] | < 3 µM | > 3 µM | – | –
21 | Cc1ccc(NC(=O)C[C@@H](Cc2nccs2)c2nnc([C@H]3C[C@@H](CC(C)C)C3)n2C2CC2)c(C)c1 [Example F-476] | < 3 µM | < 3 µM | – | –
22 | CCn1c(CCC(=O)Nc2ccc(C)cc2C)nnc1CCC(C)C [Example F-51] | > 3 µM | > 3 µM | – | –
23 | Cc1c(NC(=O)C[C@H](OCC(F)(F)F)c2nnc(-c3cc(CC(C)C)on3)n2C2CC2)ccc(F)c1F [Example F-633] | – | – | < 3 µM | < 3 µM
24 | CCOC(=O)/C=C/c1c(CCC(=O)Nc2ccc(C)cc2C)noc1[C@H]1C[C@@H](CC(C)C)C1 [Example F-645] | – | – | > 3 µM | > 3 µM
25 | Cc1ccc(NC(=O)C[C@H](CCC(=O)O)c2noc(-c3cc(CC(C)(C)C)on3)c2C2CC2)c(Cl)c1 [Example E-06] | < 3 µM | < 3 µM | – | –

Row | Structure (SMILES) | EC50 (mouse RORγ; read-out: LUC EC50 (μM) mRORg) | EC50 (human RORγ; read-out: LUC EC50 (μM) hRORg) | EC50 (mouse RORγ; read-out: LUC EC50 mRORg) | EC50 (human RORγ; read-out: LUC EC50 hRORg)
26 | Cc1ccccc1CCNC(=O)CCc1nnc(CCC(C)C)n1C1CC1 [Example F-116] | > 3 µM | > 3 µM | – | –
27 | Cc1c(Cl)cccc1NC(=O)CCc1nnc([C@H]2CC[C@H](C(C)C)CC2)n1C1CC1 [Example F-280] | < 3 µM | < 3 µM | – | –
28 | CC(=O)N1C[C@H](C(=O)Nc2cc(C)ccc2C)[C@@H](c2nnc(CCCC(C)(C)C)n2C2CC2)C1 (racemic) [Example F-331] | < 3 µM | < 3 µM | – | –
29 | CC(C)CCc1nnc(CCC(=O)NCc2cccc3[nH]ncc23)n1C1CC1 [Example F-128] | > 3 µM | > 3 µM | – | –
30 | Cc1ccc(NC(=O)C[C@@H](c2nnc([C@H]3C[C@@H](CC(C)C)C3)n2C2CC2)N(C)C(C)C)c(C)c1 [Example F-537] | – | – | < 3 µM | < 3 µM
31 | Cc1ccc(NC(=O)C[C@@H](CCCO)c2nnc([C@H]3C[C@@H](CC(C)C)C3)n2C2CC2)c(C)c1 [Example F-510] | – | – | > 3 µM | > 3 µM
32 | O=C(O)CC[C@@H](CC(=O)Nc1ccc(Cl)cc1Cl)c1noc(-c2cc(C3CCCC3)on2)c1C1CC1 [Example E-70] | < 3 µM | < 3 µM | – | –
33 | Cc1ccc(NC(=O)CCc2nnc(-c3ccc(CC(C)C)cc3)n2C2CC2)c(C)c1 [Example F-404] | < 3 µM | < 3 µM | – | –
34 | Cc1ccc(NC(=O)CC(c2nnc([C@H]3C[C@@H](CC(C)C)C3)n2C2CC2)C(C)O)c(C)c1 (mixture of isomers) [Example F-529] | – | – | < 3 µM | < 3 µM
35 | Cc1ccc(NC(=O)[C@H]2CCCN(C)[C@@H]2c2nnc(CCCC(C)(C)C)n2C2CC2)c(C)c1 [Example F-310] | < 3 µM | < 3 µM | – | –
36 | Cc1ccc(NC(=O)C[C@H](OC(C)C)c2nnc(-c3cc(CC(C)C)on3)n2C2CC2)c(C)c1 [Example F-575] | – | – | < 3 µM | < 3 µM
37 | Cc1ccc(NC(=O)C[C@H](CCC(=O)O)c2noc(-c3cc(CCC(C)C)on3)c2C2CC2)c(F)c1 [Example E-09] | < 3 µM | < 3 µM | – | –
38 | Cc1ccc(NC(=O)C[C@H](CCC(=O)O)c2noc(-c3cc(C(F)(F)C(C)(C)C)on3)c2C2CC2)c(Cl)c1 [Example E-40] | < 3 µM | < 3 µM | – | –
39 | C=CCC(CC(=O)NCc1ccc(C)cc1OC)c1nnc(CCCC(C)C)n1C1CC1 (racemic) [Example F-200] | < 3 µM | < 3 µM | – | –
40 | CC(C)C[C@H]1C[C@@H](c2nnc([C@@H](CCO)CC(=O)NCc3ccc(Cl)cc3Cl)n2C2CC2)C1 [Example F-521] | – | – | < 3 µM | < 3 µM
41 | C=CCC(CC(=O)NCc1ccc(C)cc1OC)c1nnc(CCC2CCCCC2)n1C1CC1 (racemic) [Example F-246] | < 3 µM | < 3 µM | – | –
42 | Cc1ccc(NC(=O)C[C@H](CCC(=O)O)c2onc(-c3cc(CC(C)(C)C)on3)c2C2CC2)c(Cl)c1 [Example E-75] | < 3 µM | < 3 µM | – | –
43 | CC(=O)N1C[C@H](C(=O)Nc2ccc(Cl)cc2C)[C@@H](c2nnc(C3CC4(CCC(F)(F)CC4)C3)n2C2CC2)C1 [Example F-610] | – | – | < 3 µM | < 3 µM
44 | Cc1ccc(NC(=O)C[C@H](CCC(=O)O)c2noc3c2C(C)CCC3CCC(C)C)c(Cl)c1 (mixture of isomers) [Example F-691] | – | – | < 3 µM | < 3 µM
45 | CC(=O)N1CC[C@H](C(=O)Nc2ccc(C)cc2C)[C@H]1c1nnc(CCC2CCCCC2)n1C1CC1 [Example F-227] | < 3 µM | < 3 µM | – | –
46 | CC(C)n1c(CCC(=O)Nc2cccc3ccccc23)nnc1C1Cc2ccccc2C1 [Example F-6] | > 3 µM | > 3 µM | – | –
47 | Cc1c(Cl)cccc1NC(=O)CCc1nnc(CC[C@H]2CC[C@H](C(F)(F)F)CC2)n1C1CC1 [Example F-250] | > 3 µM | > 3 µM | – | –
48 | CC(=O)N1C[C@@H](C(=O)Nc2ccc(C)cc2C)[C@H](c2nnc([C@H]3C[C@@H](OC(C)C)C3)n2C2CC2)C1 [Example F-337] | > 3 µM | > 3 µM | – | –
49 | COc1ccccc1CNC(=O)CCc1nnc(CCC(C)C)n1C1CC1 [Example F-179] | > 3 µM | > 3 µM | – | –
50 | CC(C)(C)Cc1cc(-c2onc([C@@H](CCC(=O)O)CC(=O)Nc3ccc(F)cc3Cl)c2C2CC2)no1 [Example E-57] | < 3 µM | < 3 µM | – | –
